The source of these data is ChEMBL document CHEMBL1129914, “Synthesis and inhibitory effect of a sialyl lewis X-acrylamide homopolymer at preventing cell adhesion” (Bioorg Med Chem Lett, 1997).

One assay deals with Mus musculus. Briefly: Tested in vivo for the inhibition of LTA -induced neutrophil accumulation into pleural cavity of mice at a dose of 30 mg/kg. It is filed as functional.
The target of a further assay is T1, E-selectin (Homo sapiens, UniProt P16581).
T1 sequence (P16581 whole entry): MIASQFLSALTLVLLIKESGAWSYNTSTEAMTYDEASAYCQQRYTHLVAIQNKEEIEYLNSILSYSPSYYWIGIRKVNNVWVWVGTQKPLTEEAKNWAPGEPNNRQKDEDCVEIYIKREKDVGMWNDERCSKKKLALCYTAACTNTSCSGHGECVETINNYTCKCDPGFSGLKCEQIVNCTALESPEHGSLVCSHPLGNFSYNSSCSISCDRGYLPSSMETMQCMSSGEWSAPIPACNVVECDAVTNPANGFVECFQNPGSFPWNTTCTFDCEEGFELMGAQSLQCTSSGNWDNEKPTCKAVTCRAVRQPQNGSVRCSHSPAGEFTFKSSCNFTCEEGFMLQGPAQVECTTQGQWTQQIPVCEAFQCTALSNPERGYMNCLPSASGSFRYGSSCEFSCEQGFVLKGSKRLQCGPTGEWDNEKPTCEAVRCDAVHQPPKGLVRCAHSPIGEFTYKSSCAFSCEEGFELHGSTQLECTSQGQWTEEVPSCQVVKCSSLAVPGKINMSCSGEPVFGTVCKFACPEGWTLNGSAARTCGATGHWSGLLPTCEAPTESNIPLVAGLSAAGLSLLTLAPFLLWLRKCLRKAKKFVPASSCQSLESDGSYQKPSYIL
Briefly: Tested in vitro to inhibit cell adhesion of HL-60 cells to recombinant human soluble Selectin E. The format is cell-based.

One may read the inhibition in vivo as the change of the read-out against control, counted positive when it falls. Low values mean a weak effect, high ones a strong effect. As usually defined, the IC50 is the concentration needed to halve the response being measured.

Take `CCO[C@@H]1O[C@@H](CO)[C@@H](O[C@@H]2O[C@@H](CO)[C@H](O)[C@H](O[C@]3(C(=O)O)C[C@@H](O)[C@@H](NC(C)=O)[C@H]([C@H](O)[C@H](O)CO)O3)[C@@H]2O)[C@H](O[C@@H]2O[C@@H](C)[C@@H](O)[C@H](O)[C@@H]2O)[C@@H]1NC(C)=O`: 30 mg/kg produced 38% inhibition in vivo with Mus musculus. In addition, the IC50 at E-selectin turned out to be 1500 µg/mL.
In the assay with Mus musculus, `C=CC(=O)NCCCCCCO[C@@H]1O[C@@H](CO)[C@@H](O[C@@H]2O[C@@H](CO)[C@H](O)[C@H](O[C@]3(C(=O)[O-])C[C@@H](O)[C@@H](NC(C)=O)[C@H]([C@H](O)[C@H](O)CO)O3)[C@@H]2O)[C@H](O[C@@H]2O[C@@H](C)[C@@H](O)[C@H](O)[C@@H]2O)[C@@H]1NC(=O)c1ccc2ccccc2c1.[Na+]` came in with an inhibition in vivo at 30 mg/kg of 35%. Further, the IC50 at E-selectin came to 100 µg/mL.
